Results taken from patent US20230355613A1, “METHODS FOR TREATING PANCREATIC DUCTAL ADENOCARCINOMA” (HEALTH RESEARCH, INC., priority 2022, published 2023).

Experiments:
[1] = tested on: human acute myeloid leukemia (AML) and Ewing's sarcoma cells; conditions: in vitro; cited from earlier work
PDAC cells = test: BrdU incorporation assay; format: cell-based; conditions: within 8 hours
Procedure: Finally, we sought to determine how JTE-607-mediated depletion of RD histones led to defects in cell viability. As RD histones are required for cell cycle progression, we assessed the effects of JTE-607 on cell cycle distribution. […] In contrast, JTE-607 arrested Panc1 and MiaPaCa2 PDAC cells in S-phase of the cell cycle within 24 hours (FIGS. 7A and 7B). To corroborate the impact of CPSF3 knockdown on cell cycle, CPSF3 was transiently knocked-down with siRNA in Panc1 and HPNE cells (FIGS. 13D, 7C). CPSF3 knockdown induced cell cycle arrest in Panc1 cells with minimal effect on HPNE cells (FIGS. 7D and 7E). However, unlike CPSF3 inhibition-induced cell cycle arrest at S-phase, CPSF3 knockdown cells arrested at G2. […] To more specifically investigate the timing and extent of S-phase arrest upon JTE-607 treatment, BrdU incorporation was examined in a time-dependent manner (FIG. 7F). […] This is in support of previous reports where histone defects slow the progression of cells during S-phase. Therefore, JTE-607 destabilizes chromatin and attenuates PDAC cell proliferation through S-phase cell cycle arrest.
BrdU incorporation assay. […] Cells were analyzed by flow cytometry immediately and a compensation step was performed. Data were analyzed by FCS Express software (v7.06.0015).

Panc1 cells = test: RNA-seq of JTE-607 treated cells (APA, read-through, differential expression analysis); format: cell-based, human; conditions: Panc1, H3F3A and H2AZ1 normalized counts
From the text: mRNA regulation is distinct between knockdown and chemical inhibition of CPSF3. Because JTE-607 inhibits CPSF3 catalytic activity without inducing target degradation, it was sought to understand if the function of CPSF3 is distinct between knockdown and inhibition. As CPSF3 is an integral component of the polyadenylation complex and the histone cleavage complex (HCC), it was hypothesized that CPSF3 disruption would dysregulate both alternative polyadenylation (APA) and histone mRNA processing. To test this hypothesis, CPSF3 knockdown and JTE-607 treated Panc1 cells were subjected to RNA-sequencing (RNA-seq). […] In the CPSF3 knockdown cells, PolyAMiner-Bulk detected 85 significant DAGs, of which 43 genes underwent 3′UTR lengthening (PolyAIndex>0.5; Padj<0.05) and 42 genes underwent 3′UTR shortening (PolyAIndex <−0.5; Padj<0.05) (FIG. 3A). In the CPSF3 inhibition model, PolyAMiner-Bulk detected 174 significant DAGs, of which 138 underwent 3′UTR lengthening (PolyAIndex>0.5; Padj<0.05) and 36 genes underwent 3′UTR shortening (PolyAIndex <−0.5; Padj<0.05) (FIG. 3B). […]
JTE-607 inhibits expression of replication-dependent histones. JTE-607 induces global transcriptional read-through in Ewing's sarcoma cells. Therefore, it was asked whether JTE-607 would similarly induce global read-through in PDAC cells by applying the ARTDeco algorithm. […]

xenograft models = xenograft models in vivo; cited from earlier work

Question: Which apoptosis [1] does the source give for `CCOC(=O)[C@H](Cc1ccccc1)NC(=O)c1cc(Cl)c(OCCN2CCN(C)CC2)c(Cl)c1O` [JTE-607] here?
Answer: The apoptosis was “induces apoptosis”.

Question: And the “cell cycle arrest phase (BrdU incorporation)” value (PDAC cells)?
Answer: Its value is “early to mid S-phase”.

Question: And the “expression of RI histones” value (Panc1 cells)?
Answer: Its value is “not downregulated”.

Question: What about the “survival of tumor-bearing mice” value (xenograft models) of the same compound?
Answer: Its value is “prolongs survival”.
